Test results as given in the supplement of paper PMC4976141.
± gives the uncertainty stated by the source.

Assays:
[1] = system: COLO-205; experiment: % viability in DMSO, miRNA mimic relative to NTC in DMSO; higher = less cytotoxic; details: drug used in drug arm: AZ628 1 uM; treatment: DMSO
Experimental: (§1)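 26 miRNA mimics were transfected into 8 cancer cell lines in triplicate. 48 h post-transfection, cells were treated 72 h with DMSO or a line-specific drug, then recovered 72 h drug-free. Drugs: COLO-205 AZ628 1 uM, MKN-45 crizotinib 1 uM, NCI-H596 paclitaxel 6 uM, EVSA-T GDC-0980 2.5 uM, M14 AZ628 1 uM, HCC-1954 GDC-0980 2.5 uM, NCI-H441 carboplatin 2.5 uM, SKBr3 lapatinib 1 uM. Surviving cells are expressed as % of NTC-transfected cells in DMSO (the NTC drug arm itself is about 30-50%), mean +- SEM.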

[2] = system: EVSA-T; experiment: as above; details: drug used in drug arm: GDC-0980 2.5 uM; treatment: DMSO
Experimental: as §1

[3] = system: HCC-1954; experiment: as above; details: drug used in drug arm: GDC-0980 2.5 uM; treatment: DMSO
Experimental: as §1

[4] = system: M14; experiment: as above; details: drug used in drug arm: AZ628 1 uM; treatment: DMSO
Experimental: as §1

[5] = system: MKN-45; experiment: as above; details: drug used in drug arm: crizotinib 1 uM; treatment: DMSO
Experimental: as §1

[6] = system: NCI-H441; experiment: as above; details: drug used in drug arm: carboplatin 2.5 uM; treatment: DMSO
Experimental: as §1

[7] = system: NCI-H596; experiment: as above; details: drug used in drug arm: paclitaxel 6 uM; treatment: DMSO
Experimental: as §1

[8] = system: SK-BR-3; experiment: as above; details: drug used in drug arm: lapatinib 1 uM; treatment: DMSO
Experimental: as §1

[9] = system: COLO-205; experiment: % viability under drug (72 h drug + 72 h recovery), miRNA mimic relative to NTC in DMSO; higher = more surviving cells; details: drug used in drug arm: AZ628 1 uM; treatment: drug
Experimental: as §1

[10] = system: EVSA-T; experiment: as above; details: drug used in drug arm: GDC-0980 2.5 uM; treatment: drug
Experimental: as §1

[11] = system: HCC-1954; experiment: as above; details: drug used in drug arm: GDC-0980 2.5 uM; treatment: drug
Experimental: as §1

[12] = system: M14; experiment: as above; details: drug used in drug arm: AZ628 1 uM; treatment: drug
Experimental: as §1

[13] = system: MKN-45; experiment: as above; details: drug used in drug arm: crizotinib 1 uM; treatment: drug
Experimental: as §1

[14] = system: NCI-H441; experiment: as above; details: drug used in drug arm: carboplatin 2.5 uM; treatment: drug
Experimental: as §1

[15] = system: NCI-H596; experiment: as above; details: drug used in drug arm: paclitaxel 6 uM; treatment: drug
Experimental: as §1

[16] = system: SK-BR-3; experiment: as above; details: drug used in drug arm: lapatinib 1 uM; treatment: drug
Experimental: as §1

[17] = system: PC9; experiment: cell count fold change with erlotinib, miRNA mimic vs non-targeting control (log2 ratio); higher = more drug-tolerant survivors than NTC; details: erlotinib 1 µM; 72 h drug + 72 h drug-free recovery; perturbation: miRNA mimic

In the case of ACAGUAGAGGGAGGAAUCGCAG, the “% viability in DMSO” value [1] is reported as 94 ± 5.5%, the “% viability in DMSO” value [2] is reported as 25.6 ± 1.8% and the “% viability in DMSO” value [3] is reported as 64.5 ± 2.5%. The “% viability in DMSO” value [4] was 20 ± 3.4%, the “% viability in DMSO” value [5] was 31.6 ± 9.1% and the “% viability in DMSO” value [6] was 34.6 ± 18%. For the same sequence, the “% viability in DMSO” value [7] was 65.6 ± 2.4%, the “% viability in DMSO” value [8] was 67.8 ± 13% and the “% viability under drug” value [9] was 37.6 ± 4.1%. For the same sequence, the “% viability under drug” value [10] was 0.124 ± 0.035%, the “% viability under drug” value [11] was 1.37 ± 0.43% and the “% viability under drug” value [12] was 4.04 ± 0.76%. For the same sequence, the “% viability under drug” value [13] was 0.428 ± 0.005%, the “% viability under drug” value [14] was 38.6 ± 6.2% and the “% viability under drug” value [15] was 0.53 ± 0.13%. For the same sequence, the “% viability under drug” value [16] was 25.7 ± 0.71% and the “cell count fold change with erlotinib” value [17] was -3.56.
In the case of UCUACAAAGGAAAGCGCUUUCU, the “% viability in DMSO” value [1] is reported as 109 ± 3.9%, the “% viability in DMSO” value [2] is reported as 37.4 ± 6.7% and the “% viability in DMSO” value [3] is reported as 68.8 ± 1.8%. The “% viability in DMSO” value [4] was 63 ± 19%, the “% viability in DMSO” value [5] was 48.8 ± 8.7% and the “% viability in DMSO” value [6] was 41.8 ± 3.1%. The “% viability in DMSO” value [7] was 80.5 ± 9.8%, the “% viability in DMSO” value [8] was 49.1 ± 3.5% and the “% viability under drug” value [9] was 47.79 ± 0.091%. For the same sequence, the “% viability under drug” value [10] was 1.13 ± 0.19%, the “% viability under drug” value [11] was 2.02 ± 0.14% and the “% viability under drug” value [12] was 6.38 ± 0.2%. For the same sequence, the “% viability under drug” value [13] was 1.63 ± 0.29%, the “% viability under drug” value [14] was 12.8 ± 1.1% and the “% viability under drug” value [15] was 2.12 ± 0.19%. For the same sequence, the “% viability under drug” value [16] was 26 ± 2.1% and the “cell count fold change with erlotinib” value [17] was 0.22.
For AAAAGUAAUUGUGGUUUUUGCC, the “% viability in DMSO” value [1] was 95 ± 6.9%, the “% viability in DMSO” value [2] was 71.9 ± 2.7% and the “% viability in DMSO” value [3] was 110 ± 9.3%. The “% viability in DMSO” value [4] was 85.4 ± 3.8%, the “% viability in DMSO” value [5] was 156 ± 2.2% and the “% viability in DMSO” value [6] was 106 ± 7.8%. For the same sequence, the “% viability in DMSO” value [7] was 98.8 ± 8.3%, the “% viability in DMSO” value [8] was 80.3 ± 4.8% and the “% viability under drug” value [9] was 46.4 ± 1.6%. For the same sequence, the “% viability under drug” value [10] was 0.3585 ± 0.0025%, the “% viability under drug” value [11] was 2.67 ± 0.17% and the “% viability under drug” value [12] was 21.9 ± 1.3%. For the same sequence, the “% viability under drug” value [13] was 4.45 ± 0.12%, the “% viability under drug” value [14] was 24.2 ± 3.6% and the “% viability under drug” value [15] was 0.738 ± 0.0075%. The “% viability under drug” value [16] was 39.2 ± 11% and the “cell count fold change with erlotinib” value [17] was 0.561.
GAAUGUUGCUCGGUGAACCCCU was tested, and the “% viability in DMSO” value [1] was 102 ± 1.1%, the “% viability in DMSO” value [2] was 0.953 ± 0.055% and the “% viability in DMSO” value [3] was 10.8 ± 1.4%. The “% viability in DMSO” value [4] was 17.3 ± 2.9%, the “% viability in DMSO” value [5] was 8.61 ± 2.6% and the “% viability in DMSO” value [6] was 7.26 ± 0.039%. The “% viability in DMSO” value [7] was 7.07 ± 2.1%, the “% viability in DMSO” value [8] was 12.4 ± 5.7% and the “% viability under drug” value [9] was 36.6 ± 1.2%. For the same sequence, the “% viability under drug” value [10] was 0.08 ± 0.004%, the “% viability under drug” value [11] was 0.831 ± 0.092% and the “% viability under drug” value [12] was 3.18 ± 0.17%. The “% viability under drug” value [13] was 0.355 ± 0.046%, the “% viability under drug” value [14] was 4.29 ± 0.14% and the “% viability under drug” value [15] was 0.932 ± 0.015%. For the same sequence, the “% viability under drug” value [16] was 10.1 ± 0.42% and the “cell count fold change with erlotinib” value [17] was -3.27.
UGUCAGUUUGUCAAAUACCCCA was tested, and the “% viability in DMSO” value [1] was 98.3 ± 4.3%, the “% viability in DMSO” value [2] was 28 ± 2.1% and the “% viability in DMSO” value [3] was 31.9 ± 3.4%. For the same sequence, the “% viability in DMSO” value [4] was 129 ± 10%, the “% viability in DMSO” value [5] was 142 ± 23% and the “% viability in DMSO” value [6] was 27.3 ± 6.4%. The “% viability in DMSO” value [7] was 22.8 ± 1.2%, the “% viability in DMSO” value [8] was 104 ± 12% and the “% viability under drug” value [9] was 38 ± 0.5%. The “% viability under drug” value [10] was 0.172 ± 0.0035%, the “% viability under drug” value [11] was 0.617 ± 0.0095% and the “% viability under drug” value [12] was 16.4 ± 2.8%. For the same sequence, the “% viability under drug” value [13] was 2.37 ± 0.29%, the “% viability under drug” value [14] was 5.55 ± 0.62% and the “% viability under drug” value [15] was 0.42 ± 0.093%. For the same sequence, the “% viability under drug” value [16] was 27.4 ± 1.9% and the “cell count fold change with erlotinib” value [17] was -5.21.
GAGCCAGUUGGACAGGAGC was tested, and the “% viability in DMSO” value [1] was 101 ± 6.3%, the “% viability in DMSO” value [2] was 28.9 ± 1% and the “% viability in DMSO” value [3] was 34 ± 6.2%. The “% viability in DMSO” value [4] was 97.9 ± 14%, the “% viability in DMSO” value [5] was 70.7 ± 8% and the “% viability in DMSO” value [6] was 60.7 ± 17%. For the same sequence, the “% viability in DMSO” value [7] was 66.947 ± 0.021%, the “% viability in DMSO” value [8] was 178 ± 130% and the “% viability under drug” value [9] was 38.9 ± 1%. The “% viability under drug” value [10] was 0.0905 ± 0.0095%, the “% viability under drug” value [11] was 0.433 ± 0.085% and the “% viability under drug” value [12] was 6.67 ± 1.9%. For the same sequence, the “% viability under drug” value [13] was 1.7 ± 0.21%, the “% viability under drug” value [14] was 18.1 ± 1.8% and the “% viability under drug” value [15] was 0.418 ± 0.032%. For the same sequence, the “% viability under drug” value [16] was 48.1 ± 28% and the “cell count fold change with erlotinib” value [17] was -4.82.
With CAAUGUUUCCACAGUGCAUCAC the “% viability in DMSO” value [1] was 98.6 ± 2%, the “% viability in DMSO” value [2] was 2.27 ± 1.2% and the “% viability in DMSO” value [3] was 7.62 ± 0.18%. The “% viability in DMSO” value [4] was 42.7 ± 9%, the “% viability in DMSO” value [5] was 2.31 ± 0.74% and the “% viability in DMSO” value [6] was 2.78 ± 0.14%. For the same sequence, the “% viability in DMSO” value [7] was 15.2 ± 1.5%, the “% viability in DMSO” value [8] was 16.8 ± 1.4% and the “% viability under drug” value [9] was 29.2 ± 4.1%. The “% viability under drug” value [10] was 0.155 ± 0.049%, the “% viability under drug” value [11] was 1.26 ± 0.032% and the “% viability under drug” value [12] was 5.66 ± 1.1%. For the same sequence, the “% viability under drug” value [13] was 0.794 ± 0.25%, the “% viability under drug” value [14] was 4.19 ± 0.47% and the “% viability under drug” value [15] was 0.731 ± 0.068%. For the same sequence, the “% viability under drug” value [16] was 9.29 ± 0.1% and the “cell count fold change with erlotinib” value [17] was -2.66.
